Structures can show the parent of a compound that is named as a salt.

The target of one test is recombinant human cGAS (Homo sapiens (Human), UniProt Q8N884). The test is described as follows: In vitro inhibition assay of cGAS activity (cGAMP production, RapidFire mass spectrometry). The class given is biochemical. To be noted: 10 nM recombinant human cGAS, 60 nM 75-bp dsDNA, ATP, GTP, room temperature 3 hours, read-out: IC50 (μM), In vitro inhibition assay for Compounds 95-348. Put shortly: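 Product cGAMP was quantified by RapidFire MS against a difluoro-cGAMP internal standard after a formic acid quench. The reaction contained 10 nM recombinant full-length human cGAS, 75-bp dsDNA (60 nM), ATP and GTP (50 μM) and ran for 3 h at room temperature. IC50 values came from 4-parameter nonlinear regression.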

For test [1], the system named is cGAS activity in THP1 cells (IFNb as marker). Put plainly: Cellular assay to measure cGAS activity (IFNb production in PMA-differentiated THP1 cells stimulated by RDG-Adenovirus-GFP). The class given is cell-based, human. The conditions noted are these: Homo sapiens, THP-1, THP1 cells, PMA differentiated, RDG-Adenovirus-GFP 1000 MOI, IFNb AlphaLISA, overnight incubation; read-out: IC50 (μM), Cellular assay for Compounds 95-348. The method, boiled down:
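The readout is secreted IFNb measured by AlphaLISA after overnight compound exposure. THP1 cells, differentiated with PMA for 24 h and rested overnight, were infected with RDG-Adenovirus-GFP (1000 MOI, 4 h) before compounds were added; IC50 came from a 4-parameter logistic fit of inhibition against log concentration.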
(Alpha assays give light when donor and acceptor beads are brought close together.)

Sequence of recombinant human cGAS (Q8N884 whole entry): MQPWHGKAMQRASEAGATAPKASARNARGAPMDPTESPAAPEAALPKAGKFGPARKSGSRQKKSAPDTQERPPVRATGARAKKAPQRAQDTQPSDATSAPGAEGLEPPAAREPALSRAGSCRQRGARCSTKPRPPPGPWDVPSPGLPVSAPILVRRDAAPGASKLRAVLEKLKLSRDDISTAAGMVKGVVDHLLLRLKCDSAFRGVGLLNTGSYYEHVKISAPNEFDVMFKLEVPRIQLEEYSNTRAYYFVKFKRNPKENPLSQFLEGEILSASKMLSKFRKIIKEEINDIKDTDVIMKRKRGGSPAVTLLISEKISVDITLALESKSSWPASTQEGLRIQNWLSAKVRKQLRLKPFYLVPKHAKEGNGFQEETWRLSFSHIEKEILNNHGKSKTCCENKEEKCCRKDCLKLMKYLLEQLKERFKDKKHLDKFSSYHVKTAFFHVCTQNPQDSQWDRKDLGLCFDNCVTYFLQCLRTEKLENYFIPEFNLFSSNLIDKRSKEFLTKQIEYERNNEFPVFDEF

With `O=C(NCc1[nH]c2c(Cl)c(Cl)ccc2c1-c1cn[nH]c1)C1(O)COC1` [Example 223, N-[[6,7-Dichloro-3-(1H-pyrazol-4-yl)-1H-indol-2-yl]methyl]-3-hydroxy-oxetane-3-carboxamide], the IC50 is 0.0812 µM at recombinant human cGAS and 3.2 µM in test [1].

`O=C(NCc1[nH]c2c(Cl)c(Cl)ccc2c1-c1cn[nH]c1)C1COC1` [Example 224, N-[[6,7-Dichloro-3-(1H-pyrazol-4-yl)-1H-indol-2-yl]methyl]oxetane-3-carboxamide]: the values for the IC50 (at recombinant human cGAS; in test [1]) were 0.0704 µM and 2.73 µM, respectively.

Take `O=C(Nc1cc(Cl)c(Cl)c2[nH]c(CCO)c(-c3cn[nH]c3)c12)C(F)F` [Example 225, N-[6,7-Dichloro-2-(2-hydroxyethyl)-3-(1H-pyrazol-4-yl)-1H-indol-4-yl]-2,2-difluoro-acetamide]: the values for the IC50 (on recombinant human cGAS; in test [1]) were 0.0121 µM and 0.23 µM, respectively.

As for `Clc1ccc2c(-c3cn[nH]c3)cn(-c3c[nH]nn3)c2c1` [Example 226, 6-Chloro-3-(1H-pyrazol-4-yl)-1-(1H-triazol-4-yl)indole], the values for the IC50 (at recombinant human cGAS; in test [1]) were 0.0563 µM and 2.27 µM, respectively.

As to `NC(=O)Cn1cc(-n2cc(-c3cn[nH]c3)c3ccc(Cl)cc32)nn1` [Example 227, 2-[4-[6-Chloro-3-(1H-pyrazol-4-yl)indol-1-yl]triazol-1-yl]acetamide], the IC50 on recombinant human cGAS amounted to 0.0408 µM; in test [1] it was 1.6 µM.

With `NCCn1cc(-n2cc(-c3cn[nH]c3)c3ccc(Cl)cc32)nn1` [Example 228, 2-[4-[6-Chloro-3-(1H-pyrazol-4-yl)indol-1-yl]triazol-1-yl] ethanamine formic acid salt], the figures for the IC50 (on recombinant human cGAS; in test [1]) were 0.0493 µM and 1.46 µM, respectively.

As to `Cn1cc(-n2cc(-c3cn[nH]c3)c3ccc(Cl)cc32)nn1` [Example 230, 6-Chloro-1-(1-methyltriazol-4-yl)-3-(1H-pyrazol-4-yl)indole], the IC50 on recombinant human cGAS was 0.0693 µM; in test [1], 2.02 µM.

Regarding `CC(=S)Nc1cc(Cl)c(Cl)c2[nH]cc(-c3cn[nH]c3)c12` [Example 231, N-[6,7-Dichloro-3-(1H-pyrazol-4-yl)-1H-indol-4-yl]thioacetamide], the IC50 at recombinant human cGAS is 0.0724 µM; in test [1] it was 1.01 µM.

Turning to `CC(=O)N[C@H]1CCn2c1c(-c1cn[nH]c1)c1c(OCC#N)cc(Cl)c(Cl)c12` [Example 232, (S)—N-(5,6-Dichloro-8-(cyanomethoxy)-9-(1H-pyrazol-4-yl)-2,3-dihydro-1H-pyrrolo[1,2-a]indol-1-yl)acetamide], the values for the IC50 (on recombinant human cGAS; in test [1]) were 0.00376 µM and 0.668 µM, respectively.

Take `CCOc1cc(Cl)c(Cl)c2c1c(-c1cn[nH]c1)c1n2CC[C@@H]1NC(C)=O` [Example 233, (S)—N-(5,6-Dichloro-8-ethoxy-9-(1H-pyrazol-4-yl)-2,3-dihydro-1H-pyrrolo[1,2-a]indol-1-yl)acetamide]: the IC50 at recombinant human cGAS amounted to 0.0806 µM; in test [1], 1.13 µM.

As to `CC(=O)N[C@@H]1CCn2c1c(-c1cn[nH]c1)c1c(OCC#N)cc(Cl)c(Cl)c12` [Example 234, (R)—N-(5,6-Dichloro-8-(cyanomethoxy)-9-(1H-pyrazol-4-yl)-2,3-dihydro-1H-pyrrolo[1,2-a]indol-1-yl)acetamide], the 50% inhibitory concentration (IC50) on recombinant human cGAS turned out to be 0.0249 µM; in test [1] it was 1.72 µM.

For the compound `CCOc1cc(Cl)c(Cl)c2c1c(-c1cn[nH]c1)c1n2CC[C@H]1NC(C)=O` [Example 235, (R)—N-(5,6-Dichloro-8-ethoxy-9-(1H-pyrazol-4-yl)-2,3-dihydro-1H-pyrrolo[1,2-a]indol-1-yl)acetamide], the IC50 amounted to 0.019 µM on recombinant human cGAS and 2.05 µM in test [1].

With `CC(=O)NCC(=O)NC1CCn2c1c(-c1cn[nH]c1)c1ccc(Cl)c(Cl)c12` (stereo not shown) [Example 236, 2-Acetamido-N-(5,6-dichloro-9-(1H-pyrazol-4-yl)-2,3-dihydro-1H-pyrrolo[1,2-a]indol-1-yl)acetamide], the values for the IC50 (on recombinant human cGAS; in test [1]) were 0.0331 µM and more than 10 µM, respectively.

For `O=C(CO)NC1CCn2c1c(-c1cn[nH]c1)c1ccc(Cl)c(Cl)c12` (stereo not shown) [Example 237, N-(5,6-Dichloro-9-(1H-pyrazol-4-yl)-2,3-dihydro-1H-pyrrolo[1,2-a]indol-1-yl)-2-hydroxyacetamide], the IC50 on recombinant human cGAS worked out at 0.015 µM; in test [1], 1.74 µM.

On to `CS(=O)(=O)NC1CCn2c1c(-c1cn[nH]c1)c1ccc(Cl)c(Cl)c12` (stereo not shown) [Example 238, N-(5,6-Dichloro-9-(1H-pyrazol-4-yl)-2,3-dihydro-1H-pyrrolo[1,2-a]indol-1-yl)methanesulfonamide], for which the IC50 on recombinant human cGAS was 0.046 µM; in test [1], more than 10 µM.

In the case of `CCC(=O)NC1CCn2c1c(-c1cn[nH]c1)c1ccc(Cl)c(Cl)c12` (stereo not shown) [Example 239, N-(5,6-Dichloro-9-(1H-pyrazol-4-yl)-2,3-dihydro-1H-pyrrolo[1,2-a]indol-1-yl)propionamide], the IC50 is 0.0613 µM on recombinant human cGAS and more than 10 µM in test [1].

For `COCCC(=O)NC1CCn2c1c(-c1cn[nH]c1)c1ccc(Cl)c(Cl)c12` (stereo not shown) [Example 240, N-(5,6-Dichloro-9-(1H-pyrazol-4-yl)-2,3-dihydro-1H-pyrrolo[1,2-a]indol-1-yl)-3-methoxypropanamide], the IC50 is 0.0642 µM on recombinant human cGAS and more than 10 µM in test [1].

For `CC(=O)N[C@H]1Cc2c(-c3cn[nH]c3)c3c(NC(=O)C(F)F)cc(Cl)c(Cl)c3n2C1` [Example 244, (S)—N-(2-Acetamido-5,6-dichloro-9-(1H-pyrazol-4-yl)-2,3-dihydro-1H-pyrrolo[1,2-a]indol-8-yl)-2,2-difluoroacetamide], the IC50 at recombinant human cGAS stood at 0.0099 µM; in test [1], 0.531 µM.

On to `CC(=O)N[C@H]1Cc2c(-c3cn[nH]c3)c3c(OCC#N)cc(Cl)c(Cl)c3n2C1` [Example 245, (S)—N-(5,6-Dichloro-8-(cyanomethoxy)-9-(1H-pyrazol-4-yl)-2,3-dihydro-1H-pyrrolo[1,2-a]indol-2-yl)acetamide], for which the IC50 on recombinant human cGAS stood at 0.0122 µM; in test [1], 0.872 µM.

For the compound `CS(=O)(=O)NC1Cc2c(-c3cn[nH]c3)c3ccc(Cl)c(Cl)c3n2C1` (stereo not shown) [Example 246, N-(5,6-Dichloro-9-(1H-pyrazol-4-yl)-2,3-dihydro-1H-pyrrolo[1,2-a]indol-2-yl)methanesulfonamide], the IC50 at recombinant human cGAS was 0.0313 µM; in test [1], 9.23 µM.

Turning to `N#CCOc1cc(Cl)c(Cl)c2[nH]nc(-c3cn[nH]c3)c12` [Example 249, 2-[[6,7-Dichloro-3-(1H-pyrazol-4-yl)-1H-indazol-4-yl]oxy]acetonitrile], the IC50 was determined as 0.0306 µM on recombinant human cGAS and 2.32 µM in test [1].

As for `OCCCNc1cc(Cl)c(Cl)c2[nH]nc(-c3cn[nH]c3)c12` [Example 250, 3-[[6,7-Dichloro-3-(1H-pyrazol-4-yl)-1H-indazol-4-yl]amino]propan-1-ol], the IC50 is 0.0052 µM on recombinant human cGAS and 0.376 µM in test [1].

As to `CCN1CCn2c(c(-c3cn[nH]c3)c3c(NC(=O)C(F)F)cc(Cl)c(Cl)c32)C1=O` [Example 251, N-[6,7-Dichloro-2-ethyl-1-oxo-10-(1H-pyrazol-4-yl)-3,4-dihydropyrazino[1,2-a]indol-9-yl]-2,2-difluoro-acetamide], the IC50 on recombinant human cGAS came to 0.0265 µM; in test [1], 1.36 µM.

Turning to `COCCN1CCn2c(c(-c3cn[nH]c3)c3c(NC(=O)C(F)F)cc(Cl)c(Cl)c32)C1=O` [Example 252, N-[6,7-Dichloro-2-(2-methoxyethyl)-1-oxo-10-(1H-pyrazol-4-yl)-3,4-dihydropyrazino[1,2-a]indol-9-yl]-2,2-difluoro-acetamide], the IC50 on recombinant human cGAS came out at 0.033 µM; in test [1], 0.726 µM.

Take `CC(=O)N1CCn2c(c(-c3cn[nH]c3)c3c(NCCCO)cc(Cl)c(Cl)c32)C1` [Example 253, 1-[6,7-Dichloro-9-(3-hydroxypropylamino)-10-(1H-pyrazol-4-yl)-3,4-dihydro-1H-pyrazino[1,2-a]indol-2-yl]ethanone]: the IC50 turned out to be 0.014 µM at recombinant human cGAS and 0.509 µM in test [1].

Turning to `CC(=O)N1CCn2c(c(-c3cn[nH]c3)c3c(NCC#N)cc(Cl)c(Cl)c32)C1` [Example 254, 2-[[2-Acetyl-6,7-dichloro-10-(1H-pyrazol-4-yl)-3,4-dihydro-1H-pyrazino[1,2-a]indol-9-yl]amino]acetonitrile], the IC50 at recombinant human cGAS worked out at 0.03 µM; in test [1] it was 0.938 µM.

With `CCNc1cc(Cl)c(Cl)c2c1c(-c1cn[nH]c1)c1n2CCN(C(C)=O)C1` [Example 255, 1-(6,7-dichloro-9-(ethylamino)-10-(1H-pyrazol-4-yl)-3,4-dihydropyrazino[1,2-a]indol-2(1H)-yl)ethan-1-one hydrochloride], the half-inhibitory concentration (IC50) at recombinant human cGAS was determined as 0.0326 µM; in test [1], 2.09 µM.

On to `CC(=O)N1CCn2c(c(-c3cn[nH]c3)c3c(NC(=O)C(F)(F)F)cc(Cl)c(Cl)c32)C1` [Example 256, N-[2-Acetyl-6,7-dichloro-10-(1H-pyrazol-4-yl)-3,4-dihydro-1H-pyrazino[1,2-a]indol-9-yl]-2,2,2-trifluoro-acetamide], for which the IC50 stood at 0.0386 µM at recombinant human cGAS and 4.8 µM in test [1].

`O=C(CO)Nc1nnc(-c2[nH]c3c(Cl)c(Cl)ccc3c2-c2cn[nH]c2)o1` [Example 257, N-[5-[6,7-Dichloro-3-(1H-pyrazol-4-yl)-1H-indol-2-yl]-1,3,4-oxadiazol-2-yl]-2-hydroxy-acetamide]: the IC50 on recombinant human cGAS is 0.0235 µM; in test [1], more than 10 µM.

The IC50 is the point on the concentration scale where inhibition reaches its midpoint.

The record behind these values is US20230391786A1, “cGAS INHIBITORS” (Eli Lilly and Company, priority 2022, published 2023).
